Data published in patent US10183935B2, “Benzamide derivatives as modulators of the follicle stimulating hormone” (Merck Patent GmbH, priority 2012, dated 2019).

molecular target: T1, FSHR (Homo sapiens, UniProt P23945); test: EC50 of Cyclic AMP Production in CHO FSHR Cells+EC20 FSH (Assay A); assay type: cell-based; settings: @ 3 μM, read-out: Assay A: percental effect (response) relative to the maximum response of the FSH standard
T1 construct: expressed in transfected cells; host or cells: CHO (Cho-FSHR-LUC-1-1-43)
T1 sequence (P23945 18-695): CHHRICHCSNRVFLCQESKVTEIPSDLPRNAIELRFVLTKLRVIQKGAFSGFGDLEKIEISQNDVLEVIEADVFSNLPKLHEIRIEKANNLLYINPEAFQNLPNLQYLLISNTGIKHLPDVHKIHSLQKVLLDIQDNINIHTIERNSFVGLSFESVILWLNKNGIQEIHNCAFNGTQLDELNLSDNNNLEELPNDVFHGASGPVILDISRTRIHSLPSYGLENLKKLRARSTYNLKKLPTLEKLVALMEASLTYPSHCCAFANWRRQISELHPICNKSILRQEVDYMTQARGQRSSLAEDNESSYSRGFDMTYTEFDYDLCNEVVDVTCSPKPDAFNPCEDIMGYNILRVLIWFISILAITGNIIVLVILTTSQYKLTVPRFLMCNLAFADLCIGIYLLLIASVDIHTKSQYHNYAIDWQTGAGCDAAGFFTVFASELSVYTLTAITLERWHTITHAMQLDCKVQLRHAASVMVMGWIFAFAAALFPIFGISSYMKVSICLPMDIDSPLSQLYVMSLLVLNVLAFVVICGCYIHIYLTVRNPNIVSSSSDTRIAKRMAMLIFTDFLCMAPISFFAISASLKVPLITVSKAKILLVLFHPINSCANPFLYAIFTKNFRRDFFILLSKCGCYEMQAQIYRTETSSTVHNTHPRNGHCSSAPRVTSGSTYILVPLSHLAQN
Description: Example 17: EC50 of Cyclic AMP Production in CHO FSHR Cells+EC20 FSH (Assay A)
2500 Cho-FSHR-LUC-1-1-43 cells were plated per well in 5 μl of phenol red free DMEM/F12+1% FBS. Cells were plated in 384 well, solid white low volume plates (Greiner 784075) by Multidrop. Cells were assayed by adding 100 μl of 2×EC20 FSH/IBMX in DMEM/F12+0.1% BSA) by Multidrop to 2 μl of test compound stamped in 384 well plates (compounds are diluted 1:50). The final FSH concentration was […], and the final IBMX concentration was 200 μM. The compound plate map was as follows: Column 1: 2 μl of DMSO; Column 2: 2 μl of DMSO; Columns 3-12 and 13-24: 2 μl of test compound, diluted 1:4 in 100% DMSO, or 2 μl of FSH, diluted 1:4 in DMEM/F12+0.1% BSA. The starting concentration for FSH was 50 nM (final concentration was 0.5 nM). Furthermore, Column 23 contained 2 μl of EC100 FSH reference (100×) (diluted in DMEM/F12+0.1% BSA) at a final concentration of 0.5 nM, and Column 24 contained 2 μl of 1 mM AS707664/2 reference compound 2.5 μl of compound+EC20 FSH mixture were transferred to cell plates (1:2 dilution into 5 μl of cell media) The plates were incubated at 37° C. for 1 h. 10 μl of mixed HTRF (CisBio #62AM4PEC) reagents were added per well and incubated at room temperature for 1 h. The plates were read on Envision using the cAMP HTRF—low volume 384 well protocol. The readout was the calculated fluorescence ratio (665 nm/620 nm). Values given in percent (%) indicate the percental effect (response) at a certain concentration of agonist relative to the maximum response of the FSH standard.

Row | Compound | Emax at 3 µM [%]
1 | Cc1ccccc1N1CCN(c2c(NC(=O)c3ccco3)cc(C(=O)NCCCN3CCCC3=O)cc2C(F)(F)F)CC1 | 39

same assay, conditions: cAMP HTRF

Row | Compound | EC50 [nM]
2 | Cc1ccccc1N1CCN(c2cc(Cl)c(C(=O)NCCCN3CCOC3=O)cc2NC(=O)c2coc(C3CC3)n2)CC1 | < 100
3 | Cc1ccccc1N1CCN(c2cc(Cl)c(C(=O)NCCCN3CCCC3=O)cc2NC(=O)c2coc(C3CC3)n2)CC1 | < 100
4 | Cc1ccccc1N1CCN(c2cc(F)c(C(=O)N[C@@H]3CCC[C@H](C(=O)O)C3)cc2NC(=O)c2coc(C3CC3)n2)CC1 | < 100
5 | Cc1ccc(C(=O)Nc2cc(C(=O)NCCCN3CCOC3=O)c(Cl)cc2N2CCN(c3ccccc3C)CC2)o1 | 100 to 1000
6 | CCOc1cc(N2CCN(c3ccccc3C)CC2)c(NC(=O)c2ccco2)cc1C(=O)NCCCN1CCCC1=O | 1000 to 5000
7 | Cc1ccc(F)cc1N1CCN(c2cc(Cl)c(C(=O)NCCCN3CCCC3=O)cc2NC(=O)c2coc(C3CC3)n2)CC1 | 100 to 1000
8 | Cc1cccnc1N1CCN(c2cc(Cl)c(C(=O)NCCCN3CCOC3=O)cc2NC(=O)c2coc(C3CC3)n2)CC1 | < 100
9 | Cc1ccccc1N1CCN(c2cc3c(cc2NC(=O)c2ccco2)C(=O)N(Cc2cccc(CN(C)C)c2)CC3)CC1 | 1000 to 5000
10 | Cc1ccccc1N1CCN(c2c(NC(=O)c3coc(C4CC4)n3)cc(C(=O)NCCCN3CCCC3=O)cc2C(F)(F)F)CC1 | 1000 to 5000
11 | Cc1ccccc1N1CCN(c2cc(N(C)C)c(C(=O)NCCCN3CCCC3=O)cc2NC(=O)c2coc(C3CC3)n2)CC1 | 100 to 1000
12 | Cc1ccccc1N1CCN(c2cc(Cl)c(C(=O)N[C@H]3CCC[C@H](O)[C@@H]3O)cc2NC(=O)c2coc(C3CC3)n2)CC1 | < 100
13 | Cc1ccc(C)c(N2CCN(c3cc(Cl)c(C(=O)NCCCN4CCCC4=O)cc3NC(=O)c3coc(C4CC4)n3)CC2)c1 | 100 to 1000
14 | Cc1ccccc1N1CCN(c2cc(F)c(C(=O)NCCCN3CCCC3=O)cc2NC(=O)c2coc(C3CC3)n2)CC1 | 100 to 1000
15 | Cc1ccccc1N1CCN(c2cc(F)c(C(=O)N[C@H]3CCC[C@@H](C(=O)O)C3)cc2NC(=O)c2coc(C3CC3)n2)CC1 | < 100
16 | Cc1ccccc1N1CCN(c2cc3ccn(CCCN4CCOC4=O)c(=O)c3cc2NC(=O)c2coc(C3CC3)n2)CC1 | < 100
17 | Cc1ccccc1N1CCN(c2cc(Cl)c(C(=O)NCc3cccc(CN(C)C)c3)cc2NC(=O)c2ccco2)CC1 | > 5000

Other lines, results leading:

Row | EC50 [nM] | Compound
18 | < 100 | Cc1ccccc1N1CCN(c2cc3c(cc2NC(=O)c2coc(C4CC4)n2)C(=O)N(CCCN2CCCC2=O)CC3)CC1
19 | 100 to 1000 | Cc1ccccc1N1CCN(c2cc(F)c(C(=O)N[C@H]3CCC[C@H](C(=O)OC(C)(C)C)C3)cc2NC(=O)c2coc(C3CC3)n2)CC1
20 | 100 to 1000 | Cc1ccccc1N1CCN(c2cc(F)c(C(=O)N[C@@H]3CCC[C@H](C(=O)OC(C)(C)C)C3)cc2NC(=O)c2coc(C3CC3)n2)CC1
21 | 100 to 1000 | Cc1ccccc1N1CCN(c2cc3c(cc2NC(=O)c2coc(C4CC4)n2)C(=O)N([C@H]2CCC[C@H](O)[C@@H]2O)CC3)CC1
22 | 100 to 1000 | Cc1ccccc1N1CCN(c2cc(C3CC3)c(C(=O)NCCCN3CCCC3=O)cc2NC(=O)c2coc(C3CC3)n2)CC1
23 | 1000 to 5000 | Cc1ccccc1N1CCN(c2cc(N(C)C)c(C(=O)NCCCN3CCCC3=O)cc2NC(=O)c2ccco2)CC1
24 | 100 to 1000 | COC(=O)[C@@H]1CCC[C@H](NC(=O)c2cc(NC(=O)c3coc(C4CC4)n3)c(N3CCN(c4ccccc4C)CC3)cc2F)C1
25 | 100 to 1000 | Cc1ccccc1N1CCN(c2cc(Cl)c(C(=O)NCCCc3nnnn3C)cc2NC(=O)c2coc(C3CC3)n2)CC1
26 | 1000 to 5000 | Cc1ccc(F)cc1N1CCN(c2cc(Cl)c(C(=O)NCc3cccc(CN(C)C)c3)cc2NC(=O)c2ccco2)CC1
27 | 1000 to 5000 | Cc1ccccc1N1CCN(c2cc(C3CC3)c(C(=O)NCCCN3CCCC3=O)cc2NC(=O)c2ccco2)CC1
28 | < 100 | CCOc1cc(N2CCN(c3ccccc3C)CC2)c(NC(=O)c2coc(C3CC3)n2)cc1C(=O)NCCCN1CCCC1=O
29 | 100 to 1000 | Cc1ccccc1N1CCN(c2cc(Cl)c(C(=O)NCCC(C)(C)C(=O)O)cc2NC(=O)c2coc(C3CC3)n2)CC1
30 | 100 to 1000 | Cc1ccccc1N1CCN(c2cc(C(F)(F)F)c(C(=O)NCCCN3CCCC3=O)cc2NC(=O)c2coc(C3CC3)n2)CC1
31 | < 100 | Cc1ccccc1N1CCN(c2cc3c(cc2NC(=O)c2coc(C4CC4)n2)C(=O)N(CCCN2CCOC2=O)CC3)CC1
32 | 1000 to 5000 | Cc1ccc(C)c(N2CCN(c3cc(Cl)c(C(=O)NCc4cccc(CN(C)C)c4)cc3NC(=O)c3coc(C4CC4)n3)CC2)c1
33 | 100 to 1000 | COCCOc1cc(N2CCN(c3ccccc3C)CC2)c(NC(=O)c2coc(C3CC3)n2)cc1C(=O)NCCCN1CCCC1=O
34 | 100 to 1000 | Cc1ccccc1N1CCN(c2cc(O)c(C(=O)NCCCN3CCCC3=O)cc2NC(=O)c2coc(C3CC3)n2)CC1
35 | < 100 | COc1cc(N2CCN(c3ccccc3C)CC2)c(NC(=O)c2coc(C3CC3)n2)cc1C(=O)NCCCN1CCCC1=O
36 | 100 to 1000 | Cc1ccccc1N1CCN(c2cc(F)c(C(=O)NCCCN3CCOC3=O)cc2NC(=O)c2coc(C3CC3)n2)CC1
37 | 100 to 1000 | Cc1ccccc1N1CCN(c2cc(Cl)c(C(=O)NCCCc3nnn(C)n3)cc2NC(=O)c2coc(C3CC3)n2)CC1
38 | 100 to 1000 | CCc1cc(N2CCN(c3ccccc3C)CC2)c(NC(=O)c2coc(C3CC3)n2)cc1C(=O)NCCCN1CCCC1=O
39 | > 5000 | Cc1ccccc1N1CCN(c2cc(F)c(C(=O)N[C@H]3CCC[C@@H](C(=O)OC(C)(C)C)C3)cc2NC(=O)c2coc(C3CC3)n2)CC1

test system: Rat Granulosa; test: Rat Granulosa EC50 FSH (Assay B); assay type: cell-based; settings: @ 5 μM; rat granulosa cells
Description: Example 18: Rat Granulosa EC50 FSH (Assay B)
The assay was performed pursuant to the teaching of Yanofsky et al. (2006) Allosteric activation of the follicle-stimulating hormone (FSH) receptor by selective, nonpeptide agonists. JBC 281(19): 13226-13233, which is incorporated by reference in the disclosure of the invention.

Row | Compound | Assay B: percental effect (response) [% @ 5 μM]
40 | Cc1ccccc1N1CCN(c2cc3c(cc2NC(=O)c2coc(C4CC4)n2)C(=O)N(CCCN2CCCC2=O)CC3)CC1 | 133

same assay, conditions: @ 25 μM; rat granulosa cells

Row | Compound | Assay B: percental effect (response) [% @ 25 μM]
41 | Cc1ccccc1N1CCN(c2cc(Cl)c(C(=O)NCCC(C)(C)C(=O)O)cc2NC(=O)c2coc(C3CC3)n2)CC1 | 46

same assay, conditions: concentration not given; rat granulosa cells

Row | Compound | Assay B: percental effect (response) [%]
42 | Cc1ccccc1N1CCN(c2cc(F)c(C(=O)N[C@H]3CCC[C@H](C(=O)OC(C)(C)C)C3)cc2NC(=O)c2coc(C3CC3)n2)CC1 | 39
43 | Cc1ccccc1N1CCN(c2cc(F)c(C(=O)N[C@H]3CCC[C@@H](C(=O)OC(C)(C)C)C3)cc2NC(=O)c2coc(C3CC3)n2)CC1 | 11

same assay, conditions: rat granulosa cells

Row | Compound | EC50 [nM]
44 | Cc1ccccc1N1CCN(c2cc(Cl)c(C(=O)NCCCN3CCOC3=O)cc2NC(=O)c2coc(C3CC3)n2)CC1 | 100 to 1000
45 | Cc1ccccc1N1CCN(c2cc(Cl)c(C(=O)NCCCN3CCCC3=O)cc2NC(=O)c2coc(C3CC3)n2)CC1 | 100 to 1000
46 | Cc1cccnc1N1CCN(c2cc(Cl)c(C(=O)NCCCN3CCOC3=O)cc2NC(=O)c2coc(C3CC3)n2)CC1 | 100 to 1000
47 | Cc1ccccc1N1CCN(c2cc(N(C)C)c(C(=O)NCCCN3CCCC3=O)cc2NC(=O)c2coc(C3CC3)n2)CC1 | 100 to 1000
48 | Cc1ccccc1N1CCN(c2cc(Cl)c(C(=O)N[C@H]3CCC[C@H](O)[C@@H]3O)cc2NC(=O)c2coc(C3CC3)n2)CC1 | 1000 to 5000

Next, values leading:

Row | EC50 [nM] | Compound
49 | < 100 | Cc1ccccc1N1CCN(c2cc(F)c(C(=O)N[C@@H]3CCC[C@H](C(=O)OC(C)(C)C)C3)cc2NC(=O)c2coc(C3CC3)n2)CC1
50 | 100 to 1000 | Cc1ccccc1N1CCN(c2cc(Cl)c(C(=O)NCCCc3nnnn3C)cc2NC(=O)c2coc(C3CC3)n2)CC1
51 | 100 to 1000 | CCOc1cc(N2CCN(c3ccccc3C)CC2)c(NC(=O)c2coc(C3CC3)n2)cc1C(=O)NCCCN1CCCC1=O
52 | 100 to 1000 | Cc1ccccc1N1CCN(c2cc3c(cc2NC(=O)c2coc(C4CC4)n2)C(=O)N(CCCN2CCOC2=O)CC3)CC1
53 | 100 to 1000 | COCCOc1cc(N2CCN(c3ccccc3C)CC2)c(NC(=O)c2coc(C3CC3)n2)cc1C(=O)NCCCN1CCCC1=O
54 | 1000 to 5000 | COc1cc(N2CCN(c3ccccc3C)CC2)c(NC(=O)c2coc(C3CC3)n2)cc1C(=O)NCCCN1CCCC1=O
55 | 1000 to 5000 | Cc1ccccc1N1CCN(c2cc(F)c(C(=O)NCCCN3CCOC3=O)cc2NC(=O)c2coc(C3CC3)n2)CC1
56 | 1000 to 5000 | Cc1ccccc1N1CCN(c2cc(Cl)c(C(=O)NCCCc3nnn(C)n3)cc2NC(=O)c2coc(C3CC3)n2)CC1
57 | 100 to 1000 | CCc1cc(N2CCN(c3ccccc3C)CC2)c(NC(=O)c2coc(C3CC3)n2)cc1C(=O)NCCCN1CCCC1=O
58 | 1000 to 5000 | Cc1ccccc1N1CCN(c2cc3c(cc2NC(=O)c2coc(C4CC4)n2)C(=O)N(C2CCC[C@H](O)[C@@H]2O)CC3)CC1 (stereo partly shown)
